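Interpolation was linear, between the two tested concentrations surrounding the appropriate level; five concentrations were tested over 48 hours in 96-well plates. Abbreviation: GI50, concentration required for 50% inhibition of growth.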 Activity calls are given as the source filed them. Cut-off read from the data, not from the text of the source: active = GI50 up to about 1.1 µM and inactive = higher.
Experiments:
Assay in all cases: growth of human tumour cells (NCI), 48 h
NCI-H522 = test system: NCI-H522
SF-295 = test system: SF-295
K562 = test system: K562
DMS-273 = test system: DMS-273
HCT-116 = test system: HCT-116
UACC-62 = test system: UACC-62
HOP-62 = test system: HOP-62
SK-OV-3 = test system: SK-OV-3
M14 = test system: M14
SF-539 = test system: SF-539
SF-268 = test system: SF-268
OVCAR-8 = test system: OVCAR-8
786-0 = test system: 786-0
A549 = test system: A549
DLD-1 = test system: DLD-1
KM-20L2 = test system: KM-20L2
RXF 631 = test system: RXF 631
SK-MEL-28 = test system: SK-MEL-28
SK-MEL-5 = test system: SK-MEL-5
TK-10 = test system: TK-10
M19-MEL = test system: M19-MEL
SNB-19 = test system: SNB-19
RXF 393 = test system: RXF 393
SR = test system: SR
LOX IMVI = test system: LOX IMVI
HOP-18 = test system: HOP-18
SK-MEL-2 = test system: SK-MEL-2
Malme-3M = test system: Malme-3M
NCI-H226 = test system: NCI-H226
SNB-75 = test system: SNB-75
UACC-257 = test system: UACC-257
RPMI-8226 = test system: RPMI-8226
ACHN = test system: ACHN
HT-29 = test system: HT-29
DMS-114 = test system: DMS-114
HOP-92 = test system: HOP-92
XF498 = test system: XF498
KM12 = test system: KM12
U-251 = test system: U-251
CCRF-CEM = test system: CCRF-CEM
OVCAR-5 = test system: OVCAR-5
MOLT-4 = test system: MOLT-4
UO-31 = test system: UO-31
CAKI-1 = test system: CAKI-1
HCC 2998 = test system: HCC 2998
COLO 205 = test system: COLO 205
SN12C = test system: SN12C
NCI-H460 = test system: NCI-H460
OVCAR-4 = test system: OVCAR-4
OVCAR-3 = test system: OVCAR-3
HL-60 = test system: HL-60
SNB-78 = test system: SNB-78
NCI-H23 = test system: NCI-H23
LXFL 529 = test system: LXFL 529
SW-620 = test system: SW-620
EKVX = test system: EKVX
IGROV-1 = test system: IGROV-1
A498 = test system: A498
HCT-15 = test system: HCT-15

CCOC(=O)C1=C(C)N(c2ccccc2)C2=C(C(=O)N(c3ccccc3)C2c2ccccc2)C1c1ccccc1 (stereo not given)
GI50 (NCI-H522): > 100 µM (inactive) | GI50 (SF-295): > 100 µM (inactive) | GI50 (K562): > 100 µM (inactive) | GI50 (DMS-273): > 100 µM (inactive) | GI50 (HCT-116): > 100 µM (inactive) | GI50 (UACC-62): > 100 µM (inactive) | GI50 (HOP-62): > 100 µM (inactive) | GI50 (SK-OV-3): > 100 µM (inactive) | GI50 (M14): > 100 µM (inactive) | GI50 (SF-539): > 100 µM (inactive) | GI50 (SF-268): > 100 µM (inactive) | GI50 (OVCAR-8): > 100 µM (inactive) | GI50 (786-0): > 100 µM (inactive) | GI50 (A549): > 100 µM (inactive) | GI50 (DLD-1): > 100 µM (inactive) | GI50 (KM-20L2): > 100 µM (inactive) | GI50 (RXF 631): > 100 µM (inactive) | GI50 (SK-MEL-28): > 100 µM (inactive) | GI50 (SK-MEL-5): > 100 µM (inactive) | GI50 (TK-10): > 100 µM (inactive) | GI50 (M19-MEL): > 100 µM (inactive) | GI50 (SNB-19): > 100 µM (inactive) | GI50 (RXF 393): > 100 µM (inactive) | GI50 (SR): > 100 µM (inactive) | GI50 (LOX IMVI): > 100 µM (inactive) | GI50 (HOP-18): > 100 µM (inactive) | GI50 (SK-MEL-2): > 100 µM (inactive) | GI50 (Malme-3M): > 100 µM (inactive) | GI50 (NCI-H226): > 100 µM (inactive) | GI50 (SNB-75): > 100 µM (inactive) | GI50 (UACC-257): > 100 µM (inactive) | GI50 (RPMI-8226): > 100 µM (inactive) | GI50 (ACHN): > 100 µM (inactive) | GI50 (HT-29): > 100 µM (inactive) | GI50 (DMS-114): > 100 µM (inactive) | GI50 (HOP-92): > 100 µM (inactive) | GI50 (XF498): > 100 µM (inactive) | GI50 (KM12): > 100 µM (inactive) | GI50 (U-251): > 100 µM (inactive) | GI50 (CCRF-CEM): > 100 µM (inactive) | GI50 (OVCAR-5): > 100 µM (inactive) | GI50 (MOLT-4): > 100 µM (inactive) | GI50 (UO-31): > 100 µM (inactive) | GI50 (CAKI-1): > 100 µM (inactive) | GI50 (HCC 2998): > 100 µM (inactive) | GI50 (COLO 205): > 100 µM (inactive) | GI50 (SN12C): > 100 µM (inactive) | GI50 (NCI-H460): > 100 µM (inactive) | GI50 (OVCAR-4): > 100 µM (inactive) | GI50 (OVCAR-3): > 100 µM (inactive) | GI50 (HL-60): > 100 µM (inactive) | GI50 (SNB-78): > 100 µM (inactive) | GI50 (NCI-H23): > 100 µM (inactive) | GI50 (LXFL 529): > 100 µM (inactive) | GI50 (SW-620): > 100 µM (inactive) | GI50 (EKVX): > 100 µM (inactive) | GI50 (IGROV-1): > 100 µM (inactive)

CC1(C)CC(N(C(=O)/C=C/c2ccc([N+](=O)[O-])o2)C2CCCCC2)CC(C)(C)N1
GI50 (NCI-H522): 7.91 µM (inactive) | GI50 (SF-295): 13.5 µM (inactive) | GI50 (DMS-273): 5.52 µM (inactive) | GI50 (HCT-116): 3.18 µM (inactive) | GI50 (UACC-62): 10 µM (inactive) | GI50 (HOP-62): 20 µM (inactive) | GI50 (SK-OV-3): 28.6 µM (inactive) | GI50 (M14): 2.82 µM (inactive) | GI50 (SF-539): 9.86 µM (inactive) | GI50 (SF-268): 7.62 µM (inactive) | GI50 (OVCAR-8): 5.2 µM (inactive) | GI50 (786-0): 6.82 µM (inactive) | GI50 (A549): 15 µM (inactive) | GI50 (DLD-1): 1.73 µM (inactive) | GI50 (KM-20L2): 5.38 µM (inactive) | GI50 (RXF 631): 10.6 µM (inactive) | GI50 (SK-MEL-28): 12.5 µM (inactive) | GI50 (SK-MEL-5): 10.2 µM (inactive) | GI50 (TK-10): 21.3 µM (inactive) | GI50 (M19-MEL): 5.11 µM (inactive) | GI50 (SNB-19): 13.1 µM (inactive) | GI50 (SR): 5.89 µM (inactive) | GI50 (LOX IMVI): 12 µM (inactive) | GI50 (HOP-18): 22.8 µM (inactive) | GI50 (A498): 16.2 µM (inactive) | GI50 (SNB-75): 10.5 µM (inactive) | GI50 (UACC-257): 11.1 µM (inactive) | GI50 (RPMI-8226): 3.29 µM (inactive) | GI50 (ACHN): 12.8 µM (inactive) | GI50 (HT-29): 4.49 µM (inactive) | GI50 (DMS-114): 2.55 µM (inactive) | GI50 (HOP-92): 3.65 µM (inactive) | GI50 (XF498): 11.4 µM (inactive) | GI50 (KM12): 10.3 µM (inactive) | GI50 (U-251): 5.35 µM (inactive) | GI50 (CCRF-CEM): 3.25 µM (inactive) | GI50 (OVCAR-5): 23.6 µM (inactive) | GI50 (MOLT-4): 3.96 µM (inactive) | GI50 (UO-31): 12.2 µM (inactive) | GI50 (CAKI-1): 5.52 µM (inactive) | GI50 (HCC 2998): 11.3 µM (inactive) | GI50 (SN12C): 6.22 µM (inactive) | GI50 (NCI-H460): 3.71 µM (inactive) | GI50 (OVCAR-4): 10.4 µM (inactive) | GI50 (OVCAR-3): 12.3 µM (inactive) | GI50 (HL-60): 2.21 µM (inactive) | GI50 (SNB-78): 10.5 µM (inactive) | GI50 (NCI-H23): 9.46 µM (inactive) | GI50 (HCT-15): 7.45 µM | GI50 (LXFL 529): 5.36 µM (inactive) | GI50 (SW-620): 2.55 µM (inactive) | GI50 (EKVX): 13.9 µM (inactive) | GI50 (IGROV-1): 14.3 µM (inactive)
